The values that follow come from patent US10710978B2, “STK4 inhibitors for treatment of hematologic malignancies” (Dana-Farber Cancer Institute, Inc., priority 2015, dated 2020).

One test concerns the target STK4 (MST1) (Homo sapiens (Human), UniProt Q13043). In words: Z-lyte biochemical IC50 assay (Invitrogen). The settings on record: ATP concentration matched the Km. As to the method: (§1) STK4 (MST1), STK3 (MST2); STK24 (MST3) and MST4 Assays
(§2) Biochemical IC50s were measured at Invitrogen using Z-lyte technology. Briefly, for STK4, the 2×STK4 (MST1)/Ser/Thr 07 mixture was prepared in 50 mM HEPES pH 7.5, 0.01% BRIJ35, 10 mM MgCl2, 1 mM EGTA. The final 10 μL Kinase Reaction consisted of 6.25-160 ng STK4 (MST1) and 2 μM Ser/Thr 07 in 50 mM HEPES pH 7.5, 0.01% BRIJ-35, 10 mM MgCl2, 1 mM EGTA. After the 1 hour Kinase Reaction incubation, 5 μL of a 1:100000 dilution of Development Reagent A was added. Compounds were screened in a 10 point titration with 3-fold serial dilutions starting at a concentration of 10 μM. The biochemical IC50s against other STK family members were measured similarly. The ATP concentration used matched the Km for each kinase.

A further test has as its target STK24 (MST3) (Homo sapiens (Human), UniProt Q9Y6E0). Kind of test: Z-lyte biochemical IC50 assay (Invitrogen). The settings on record: ATP concentration matched the Km. As to the method:
as §1, §2

SMILES strings stand for the structures.

STK24 (MST3), sequence (Q9Y6E0 whole entry): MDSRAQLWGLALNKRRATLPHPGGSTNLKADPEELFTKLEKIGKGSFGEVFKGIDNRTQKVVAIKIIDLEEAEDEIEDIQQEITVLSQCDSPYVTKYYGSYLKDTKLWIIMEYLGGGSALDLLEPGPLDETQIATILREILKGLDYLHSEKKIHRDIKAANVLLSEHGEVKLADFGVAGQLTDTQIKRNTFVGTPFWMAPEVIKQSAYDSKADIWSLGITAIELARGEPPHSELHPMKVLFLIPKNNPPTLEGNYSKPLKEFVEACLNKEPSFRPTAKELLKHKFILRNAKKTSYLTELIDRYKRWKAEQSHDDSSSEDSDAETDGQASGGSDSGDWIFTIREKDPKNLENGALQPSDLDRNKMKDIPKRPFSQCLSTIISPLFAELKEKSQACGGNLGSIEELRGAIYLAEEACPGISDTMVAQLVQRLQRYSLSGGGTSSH
STK4 (MST1), sequence (Q13043 whole entry): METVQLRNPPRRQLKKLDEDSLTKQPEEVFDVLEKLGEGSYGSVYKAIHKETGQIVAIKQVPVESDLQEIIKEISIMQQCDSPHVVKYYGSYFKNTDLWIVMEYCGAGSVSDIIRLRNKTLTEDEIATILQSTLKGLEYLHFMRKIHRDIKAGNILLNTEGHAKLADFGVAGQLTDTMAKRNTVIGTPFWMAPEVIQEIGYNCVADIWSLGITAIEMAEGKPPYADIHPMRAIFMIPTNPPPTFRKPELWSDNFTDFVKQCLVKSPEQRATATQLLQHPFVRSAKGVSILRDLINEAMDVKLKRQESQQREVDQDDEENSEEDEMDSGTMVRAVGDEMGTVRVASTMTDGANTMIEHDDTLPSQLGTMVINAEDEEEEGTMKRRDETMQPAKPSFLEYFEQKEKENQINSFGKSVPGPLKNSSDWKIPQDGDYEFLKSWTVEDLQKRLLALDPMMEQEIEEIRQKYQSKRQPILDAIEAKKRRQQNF

For orientation: IC50 means the concentration that gives 50% inhibition. Low readings indicate higher potency, high ones lower potency. Regarding `Nc1ncc(-c2cc([N+](=O)[O-])ccc2F)cc1-c1ccc2c(c1)CCNC2=O` [Compound I-1, 6-(2-amino-5-(2-fluoro-5-nitrophenyl)pyridin-3-yl)-3,4-dihydroisoquinolin-1(2H)-one], the figures for the IC50 on STK4 (MST1) and on STK24 (MST3) were below 40 nM and above 900 nM, respectively.
